Measurements as given in BindingDB's records for doi:10.1021/jm9606599 (National Institute of Diabetes and Digestive and Kidney …, 1997).

Test: Sigma receptor binding was determined by labeling with radioligand [3H](+)-pentazocine on frozen membranes obtained from frozen guinea pig brain
Compound `Fc1ccc(C(OCCN2CCN(C/C=C/c3ccccc3)CC2)c2ccc(F)cc2)cc1` has an IC50 of 51 nM.
Work on `Fc1ccc(C(OCCN2CCN(CCCc3ccco3)CC2)c2ccc(F)cc2)cc1` [1-{2-[Bis-(4-fluoro-phenyl)-methoxy]-ethyl}-4-(3-furan-2-yl-propyl)-piperazine] yielded an IC50 of 62 nM.
For `Fc1ccc(C(OCCN2CCN(CCCc3cccnc3)CC2)c2ccc(F)cc2)cc1` [1-{2-[Bis-(4-fluoro-phenyl)-methoxy]-ethyl}-4-(3-pyridin-3-yl-propyl)-piperazine], the IC50 was 79 nM.
With `Fc1ccc(C(OCCN2CCN(CCCc3cccs3)CC2)c2ccc(F)cc2)cc1` [1-{2-[Bis-(4-fluoro-phenyl)-methoxy]-ethyl}-4-(3-thiophen-2-yl-propyl)-piperazine] the IC50 was 38 nM.
With `Fc1ccc(C(OCCN2CCN(C/C=C/c3ccco3)CC2)c2ccc(F)cc2)cc1` [1-{2-[Bis-(4-fluoro-phenyl)-methoxy]-ethyl}-4-((E)-3-furan-2-yl-allyl)-piperazine] the IC50 was 43 nM.
`Fc1ccc(C(OCCN2CCN(C/C=C/c3cccnc3)CC2)c2ccc(F)cc2)cc1` [1-{2-[Bis-(4-fluoro-phenyl)-methoxy]-ethyl}-4-((E)-3-pyridin-3-yl-allyl)-piperazine] showed an IC50 of 59 nM.
With `Fc1ccc(C(OCCN2CCN(C/C=C/c3cccs3)CC2)c2ccc(F)cc2)cc1` [1-{2-[Bis-(4-fluoro-phenyl)-methoxy]-ethyl}-4-((E)-3-thiophen-2-yl-allyl)-piperazine] the IC50 was 41 nM.
